{"source": "patent US20030113421A1", "about": "“Synergistic combinations of natural of compounds that control decay of fruits and vegetables and reduce contamination by foodborne human pathogens” (priority 2001, published 2003)", "key": {"E. coli on apple disks": {"system": "E. coli on apple disks", "set-up": "species or system Escherichia coli", "experimental": "(§1) E. coli (Strain #139 HB101/p5G6) was grown at 24° C. for 48 hr in shake-flask cultures of Lennox broth (LB). Bacterial cells were pelleted by centrifugation in a Sorvall RC-58 centrifuge (Dupont Instruments, Wilmington, Del.) at 3000 g for 20 min, resuspended in sterile distilled water, and centrifuged again. The resulting pellets were dispersed in sterile distilled water and the cell concentration was adjusted to 10^6 CFU per ml using a standard optical density (OD) curve with the OD values of 0.1 and 1 representing viable cell counts of 1×10^6 and 1×10^9, respectively. E. coli 015:H7 and L. monocytogenes isolates were grown overnight at 37° C. in trypticase soy broth and brain heart infusion, respectively. The concentration of cells was adjusted to 10^6 CFU per ml. Botrytis cinerea and Penicillium expansum were isolated from infected fruit and maintained on potato dextrose agar (PDA). A spore suspension was obtained by flooding 2 wk cultures of B. cinerea with sterile distilled water containing 0.1% (v/v) TWEEN 80. Spore counts were determined with a hemacytometer and spore concentrations were adjusted with sterile distilled water to obtain 10^5 spores per ml.\nTree-ripe apples (Malus domestica Borkh) cultivar ‘Red delicious’ were hand-picked at harvest maturity at the Appalachian Fruit Research Station, Kearneysville, W. Va. Fruit were sorted to remove any with apparent injuries or infections and stored at 4° C. under refrigeration before being used in the biocontrol tests. Apple disks (10 mm) were excised from selected Red delicious apples using a cork borer. Apple disks were treated by immersion for 90 min in a 0.1% solution of various essential oils and/or their combinations with 0.1 % chitosan salts. Disks were either treated with the different combinations of natural compounds and then inoculated with E. coli by soaking apple disks in a solution of E. coli for 90 min or inoculated with E. coli and incubated at 24° C. for 24 hr. From each treatment four disks were selected randomly, individually homogenized in 5 ml of sterile water, vortexed, and dilution plated in triplicate on a LB agar medium. Plates were incubated at 24° C. and colonies were counted after 48 hr."}, "B. cinerea": {"system": "B. cinerea", "assay": "Effect of concentration and of synergistic combinations of essential oils and chitosan salts on spore germination of B. cinerea", "type": "cell-based, Botrytis cinerea", "experimental": "as §1\n(§2) The individual effects of various essential oils and chitosan salts, and the combined effects of essential oils and chitosan salts on the growth of the indicator organism E. coli and on the postharvest pathogen B. cinerea were determined. To measure the effects of the various treatments on spore germination of B. cinerea and growth of the E. coli, the essential oils: bay, cinnamon, savory, thyme red, allspice, birch, cloves, carvacrol, and hinokitiol (Aroma Vera, Cuber City, Calif.) and MMW chitosan in acetic, propionic, and sorbic acids were combined together with B. cinerea or E. coli to yield final concentrations of 0.1 to 0.025% for the essential oils and 0.1 to 0.0016% for the chitosan salts. For the assays, 500 spores of B. cinerea were added to each treatment in microtiter dishes or three ml of a 2X concentration of E. coli (i.e., 2×10^6 CFU/ml) were combined with three ml of a 2X concentration of treatment in a 15 ml centrifuge tube, agitated overnight, and plated after 24 hr onto LB agar plates (100 μl suspension/plate). The surfactant (Triton×100) was present at a final concentration of 0.04%. […] Four replicate tubes of each treatment were used; each experiment was repeated twice. The viable bacterial cell number was counted by surface plating serially diluted samples in triplicate on LB agar medium. Plates were incubated at 24° C. and colonies were counted at 48 hr. Botrytis spore germination was determined microscopically."}, "E. coli": {"system": "E. coli", "type": "cell-based, Escherichia coli", "conditions": "for concentration at which inhibitory to E. coli growth: essential oil tested individually", "experimental": "as §1, §2"}, "[1]": {"conditions": "essential oil alone 0.025% v/v, CFU in 100 μl sample"}, "[2]": {"conditions": "essential oil alone 0.05% v/v, CFU in 100 μl sample"}, "[3]": {"conditions": "essential oil alone 0.075% v/v, CFU in 100 μl sample"}, "[4]": {"conditions": "essential oil alone 0.1% v/v, CFU in 100 μl sample"}}, "note": "Read-outs that look alike come from different tables or passages of the source.", "data": [{"smiles": "CCC(=O)O", "note": "[Propionate]", "values": [{"measurement": "Eradicant Activity E. coli (CFU)", "setting": "E. coli on apple disks; apple disks immersed in 10^6 CFU per ml E. coli for 90 min, drained, then treated (0.1% v/v)", "result": "TNTC"}, {"measurement": "Protectant Activity E. coli (CFU)", "setting": "E. coli on apple disks; apple disks treated (0.1% v/v), thereafter immersed in 10^6 CFU per ml E. coli for 90 min, CFU in 100 ml sample", "result": "TNTC"}]}, {"smiles": "CC(C)c1cccc(=O)c(O)c1", "note": "[Hinokitiol, hinokitiol]", "values": [{"measurement": "Percent Inhibition of Spore Germination, combination", "setting": "B. cinerea", "result": 100, "unit": "%"}, {"measurement": "Percent Inhibition of Spore Germination, combination", "setting": "B. cinerea; essential oil 0.067% + Chitosan acetate 0.02%", "result": 100, "unit": "%"}, {"measurement": "Percent Inhibition of Spore Germination, combination", "setting": "B. cinerea; essential oil 0.067% + Chitosan propionate 0.02%", "result": 100, "unit": "%"}, {"measurement": "Percent Inhibition of Spore Germination, synergy table", "setting": "B. cinerea; essential oil 0.067% + Water (no chitosan salt)", "result": 0, "unit": "%"}, {"measurement": "Growth of E. coli (CFU), combination", "setting": "E. coli", "result": 60, "unit": "CFU"}, {"measurement": "Growth of E. coli (CFU), combination", "setting": "E. coli; essential oil 0.075% + Chitosan acetate 0.0032%, CFU in 100 μl sample", "result": 102, "unit": "CFU"}, {"measurement": "Growth of E. coli (CFU), combination", "setting": "E. coli; essential oil 0.075% + Chitosan propionate 0.0032%, CFU in 100 μl sample", "result": 56, "unit": "CFU"}, {"measurement": "Growth of E. coli (CFU), synergy table", "setting": "E. coli; essential oil 0.075% + Water (no chitosan salt), CFU in 100 μl sample", "result": 1108, "unit": "CFU"}, {"measurement": "Growth of E. coli (CFU)", "setting": "E. coli; [1]", "result": "TNTC"}, {"measurement": "Growth of E. coli (CFU)", "setting": "E. coli; [2]", "result": "TNTC"}, {"measurement": "Growth of E. coli (CFU)", "setting": "E. coli; [3]", "result": 812, "unit": "CFU"}, {"measurement": "Growth of E. coli (CFU)", "setting": "E. coli; [4]", "result": 0, "unit": "CFU"}, {"measurement": "concentration at which inhibitory to E. coli growth", "setting": "E. coli", "result": 0.075, "unit": "%"}]}, {"smiles": "Cc1ccc(C(C)C)cc1O", "note": "[Carvacrol, carvacrol]", "values": [{"measurement": "Growth of E. coli (CFU), synergy table", "setting": "E. coli", "result": 1430, "unit": "CFU"}, {"measurement": "Growth of E. coli (CFU)", "setting": "E. coli; [1]", "result": "TNTC"}, {"measurement": "Growth of E. coli (CFU)", "setting": "E. coli; [2]", "result": 0, "unit": "CFU"}, {"measurement": "Growth of E. coli (CFU)", "setting": "E. coli; [3]", "result": 0, "unit": "CFU"}, {"measurement": "Growth of E. coli (CFU)", "setting": "E. coli; [4]", "result": 0, "unit": "CFU"}, {"measurement": "concentration at which inhibitory to E. coli growth", "setting": "E. coli", "result": 0.05, "unit": "%"}]}, {"smiles": "CC=CC=CC(=O)O", "note": "[Sorbate]", "values": [{"measurement": "Eradicant Activity E. coli (CFU)", "setting": "E. coli on apple disks", "result": "TNTC"}, {"measurement": "Protectant Activity E. coli (CFU)", "setting": "E. coli on apple disks", "result": "TNTC"}]}]}
